# According to paper PMC5572697, “A first-in-human study of the novel HIV-fusion inhibitor C34-PEG4-Chol” (Scientific Reports, 2017):
# Entries after “also recorded” stand apart in the source; their conditions may differ. Where two headings read alike, the source gives them in different places.
# What was measured:
# in vivo [1] = details: rhesus monkey, rhesus monkeys; for AUC(0-inf): plasma LC-MS, mean of three animals per point
# Description: (§1) C34-PEG4-Chol first in man – Supplementary Information
# (§2) Supplementary Information 2:
# (§3) Preclinical Pharmacokinetics of C34-PEG4-Chol […]
# (§4) C34-PEG4-Chol was formulated in 10 mM phosphate buffered saline (pH 7.2). The concentration of C34-PEG4-Chol in plasma samples was determined by LC-MS as previously […]
# (§5) Figure S4. Pharmacokinetics of C34-PEG4-Chol in rhesus monkeys 2.0 mg/kg or 1.0 mg/kg (SC and IV administration, respectively) of C34-PEG4-Chol in 10mM phosphate buffered saline (PBS) were administered to rhesus monkeys: volume of administration 0.5 mL/kg. The concentration of the dosing solution was determined immediately after dosing with the same analytical method utilized to monitor peptide plasma concentration with time, and the analytical curves were adjusted accordingly. Each data point is the mean of three animals.
# Table S4. Calculated pharmacokinetics parameters of C34-PEG4-Chol in rhesus monkeys, following intravenous (IV) and subcutaneous (SC) administration. […]
# in vivo [2] = details: rat, Wistar Han rats; for AUC(0-inf): plasma LC-MS, mean of three animals per point
# Description: as §1, §2, §3, §4
# (1 picture or pasted object on this page, not shown here) […]
# as §5, with “S3.” for “S4.”, “rats 3.5” for “rhesus monkeys 2.0”, “IV,” for “IV administration,”, “Wistar Han rats:” for “rhesus monkeys:”
# Table S3. Calculated pharmacokinetics parameters of C34-PEG4-Chol in rats, following intravenous (IV) and subcutaneous (SC) administration.
# HIV-positive men = assay: First-in-human safety and injection site reaction (ISR) grading; format: in vivo; details: for ISR grade: one participant
# Description: Dosing was commenced at the lowest dose of 10 mg in a volume of 1 mL. Randomisation was undertaken using the InForm™ Integrated Trial Management system and was on a 1:1 basis, with no predefined stratifications. All clinical study staff were blinded. Clinical research pharmacists who were not part of the clinical research team, were not blinded in order to reconstitute study products. These members of the research pharmacy team had no involvement in the clinical care of participants during study procedures.
# At all study time-points, participants were reviewed for ISRs, a symptom-directed physical examination was performed and blood samples were collected for full blood picture, electrolytes, liver enzymes, amylase and glucose. An electrocardiogram was performed pre-dose and 4 and 12 hours after dosing. A decision to proceed with dose escalation was made only after all four participants in each dose cohort had been observed for a minimum of 7 days for safety assessments. All safety data were reviewed by an independent data monitoring committee (IDMC).
# Supplementary Information 1:
# Table S1: List of injection site reactions (ISR) grading
# [3] = IV 1.0 mg/kg, read-out: t½ (converted)
smiles,measurement,setting,value
CC[C@H](C)[C@H](NC(=O)[C@H](CC(C)C)NC(=O)[C@H](CO)NC(=O)[C@H](Cc1c[nH]cn1)NC(=O)[C@@H](NC(=O)[C@H](CC(C)C)NC(=O)[C@H](CO)NC(=O)[C@@H](NC(=O)[C@H](Cc1ccc(O)cc1)NC(=O)[C@H](CC(N)=O)NC(=O)[C@H](CC(N)=O)NC(=O)[C@@H](NC(=O)[C@H](CCC(=O)O)NC(=O)[C@H](CCCNC(=N)N)NC(=O)[C@H](CC(=O)O)NC(=O)[C@H](Cc1c[nH]c2ccccc12)NC(=O)[C@H](CCC(=O)O)NC(=O)[C@H](CCSC)NC(=O)[C@H](Cc1c[nH]c2ccccc12)NC(C)=O)[C@@H](C)CC)[C@@H](C)O)[C@@H](C)CC)C(=O)N[C@@H](CCC(=O)O)C(=O)N[C@@H](CCC(=O)O)C(=O)N[C@@H](CO)C(=O)N[C@@H](CCC(N)=O)C(=O)N[C@@H](CC(N)=O)C(=O)N[C@@H](CCC(N)=O)C(=O)N[C@@H](CCC(N)=O)C(=O)N[C@@H](CCC(=O)O)C(=O)N[C@@H](CCCCN)C(=O)N[C@@H](CC(N)=O)C(=O)N[C@@H](CCC(=O)O)C(=O)N[C@@H](CCC(N)=O)C(=O)N[C@@H](CCC(=O)O)C(=O)N[C@@H](CC(C)C)C(=O)N[C@@H](CC(C)C)C(=O)NCC(=O)N[C@@H](CO)C(=O)NCC(=O)N[C@@H](CSCC(=O)NCCOCCOCCOCCOCCC(=O)O[C@H]1CC[C@@]2(C)C(=CC[C@H]3[C@@H]4CC[C@H]([C@H](C)CCCC(C)C)[C@@]4(C)CC[C@@H]32)C1)C(N)=O [C34-PEG4-Chol],clearance,in vivo [1]; IV 1.0 mg/kg,4.68 mL/h/kg
same,AUC(0-inf),in vivo [1]; IV 1.0 mg/kg in 10 mM PBS,41.5 µM·h
same,Vd,"in vivo [1]; IV 1.0 mg/kg, read-out: Vdss",0.055 L/kg
same,half-life,in vivo [1]; [3],510 min
same,Cmax,in vivo [1]; SC 2.0 mg/kg,1150 nM
same,Tmax,in vivo [1]; SC 2.0 mg/kg,6.7 h
same,bioavailability,in vivo [1]; SC 2.0 mg/kg,45.3%
same,AUC(0-inf),in vivo [1]; SC 2.0 mg/kg in 10 mM PBS,37.5 µM·h
same,clearance,in vivo [2]; IV 1.0 mg/kg,0.48 mL/min/kg
same,AUC(0-inf),in vivo [2]; IV 1.0 mg/kg in 10 mM PBS,6.6 µM·h
same,Vd,"in vivo [2]; IV 1.0 mg/kg, read-out: Vdss",0.08 L/kg
same,half-life,in vivo [2]; [3],131 min
same,Cmax,in vivo [2]; SC 3.5 mg/kg,260 nM
same,Tmax,in vivo [2]; SC 3.5 mg/kg,3.3 h
same,bioavailability,in vivo [2]; SC 3.5 mg/kg,7.97%
same,AUC(0-inf),in vivo [2]; SC 3.5 mg/kg in 10 mM PBS,1.86 µM·h
same,Individuals with grade 3 ISR among those administered active drug,"HIV-positive men; 3 men received active drug (10 mg, 10 mg, 20 mg), subcutaneous",2 out of 3
same,ISR grade,HIV-positive men; single subcutaneous 10 mg dose,grade 3
same,ISR grade,HIV-positive men; single subcutaneous 20 mg dose,grade 3
same,Systemic clinical or laboratory toxicities,"HIV-positive men; single subcutaneous 10 or 20 mg, 84 days follow up",No systemic toxicities were observed; also recorded: No systemic clinical toxicities or laboratory defined toxicities were observed
